Data from ChEMBL document CHEMBL4507286 (2021).

Assays:
[1] = molecular target: Tyrosine-protein kinase receptor Tie-1 (Homo sapiens) (UniProt P35590)
[2] = molecular target: Serine/threonine-protein kinase Nek10 (Homo sapiens) (UniProt Q6ZWH5)
[3] = system: Leucine-rich repeat serine/threonine-protein kinase 2 (Homo sapiens), Q5S007 [G2019S]
[4] = molecular target: SRSF protein kinase 3 (Homo sapiens) (UniProt Q9UPE1)
[5] = molecular target: Activin receptor type-2A (Homo sapiens) (UniProt P27037)
[6] = molecular target: Calcium/calmodulin-dependent protein kinase type IV (Homo sapiens) (UniProt Q16566)
[7] = molecular target: Mitogen-activated protein kinase 9 (Homo sapiens) (UniProt P45984)
[8] = molecular target: Muscarinic acetylcholine receptor M4 (Homo sapiens) (UniProt P08173); settings: Compound concentration 10.0 uM
[9] = system: ALK tyrosine kinase receptor (Homo sapiens), Q9UM73 [C1156Y]
[10] = molecular target: Protein kinase C eta type (Homo sapiens) (UniProt P24723)
[11] = molecular target: Serine/threonine-protein kinase WNK2 (Homo sapiens) (UniProt Q9Y3S1)
[12] = molecular target: Cyclin-G-associated kinase (Homo sapiens) (UniProt O14976)
[13] = molecular target: Ephrin type-B receptor 6 (Homo sapiens) (UniProt O15197)
[14] = molecular target: Bone morphogenetic protein receptor type-1A (Homo sapiens) (UniProt P36894)
[15] = molecular target: Serine/threonine-protein kinase 32A (Homo sapiens) (UniProt Q8WU08)
[16] = molecular target: Serine/threonine-protein kinase PLK1 (Homo sapiens) (UniProt P53350)
[17] = molecular target: Sodium-dependent serotonin transporter (Homo sapiens) (UniProt P31645); settings: Compound concentration 10.0 uM
[18] = molecular target: Serine/threonine-protein kinase 4 (Homo sapiens) (UniProt Q13043)
[19] = molecular target: Dual specificity protein kinase CLK4 (Homo sapiens, UniProt Q9HAZ1)
[20] = molecular target: Mitogen-activated protein kinase kinase kinase kinase 2 (Homo sapiens) (UniProt Q12851)
[21] = molecular target: Atypical kinase COQ8A, mitochondrial (Homo sapiens) (UniProt Q8NI60)
[22] = molecular target: Ribosomal protein S6 kinase alpha-1 (Homo sapiens) (UniProt Q15418)
[23] = system: Tyrosine-protein kinase ABL1 (Homo sapiens), P00519 [F317I]
[24] = molecular target: TGF-beta receptor type-1 (Homo sapiens) (UniProt P36897)
[25] = molecular target: Casein kinase II subunit alpha' (Homo sapiens) (UniProt P19784)
[26] = molecular target: Mitogen-activated protein kinase 7 (Homo sapiens) (UniProt Q13164)
[27] = system: Phosphatidylinositol 4,5-bisphosphate 3-kinase catalytic subunit alpha isoform (Homo sapiens), P42336 [H1047Y]
[28] = molecular target: Casein kinase I isoform gamma-2 (Homo sapiens) (UniProt P78368)
[29] = molecular target: Proto-oncogene tyrosine-protein kinase receptor Ret (Homo sapiens) (UniProt P07949)
[30] = molecular target: Serine/threonine-protein kinase PAK 3 (Homo sapiens) (UniProt O75914)
[31] = molecular target: Serine/threonine-protein kinase SIK1 (Homo sapiens) (UniProt P57059)
[32] = molecular target: Alpha-1B adrenergic receptor (Homo sapiens) (UniProt P35368); settings: Compound concentration 10.0 uM
[33] = molecular target: Sodium-dependent noradrenaline transporter (Homo sapiens) (UniProt P23975); settings: Compound concentration 10.0 uM
[34] = molecular target: 1-phosphatidylinositol 3-phosphate 5-kinase (Homo sapiens) (UniProt Q9Y2I7)
[35] = system: Epidermal growth factor receptor (Homo sapiens), P00533 [UNDEFINED MUTATION]
[36] = molecular target: Cyclin-dependent kinase 11A (Homo sapiens) (UniProt Q9UQ88)
[37] = molecular target: Serine/threonine-protein kinase WNK1 (Homo sapiens) (UniProt Q9H4A3)
[38] = system: Proto-oncogene tyrosine-protein kinase receptor Ret (Homo sapiens), P07949 [M918T]
[39] = molecular target: Mitogen-activated protein kinase 6 (Homo sapiens) (UniProt Q16659)
[40] = molecular target: Mitogen-activated protein kinase kinase kinase 7 (Homo sapiens) (UniProt O43318)
[41] = molecular target: Receptor-interacting serine/threonine-protein kinase 4 (Homo sapiens) (UniProt P57078)
[42] = molecular target: Cyclin-dependent kinase-like 5 (Homo sapiens) (UniProt O76039)
[43] = molecular target: Uncharacterized serine/threonine-protein kinase SBK3 (Homo sapiens) (UniProt P0C264)
[44] = molecular target: Mitogen-activated protein kinase 1 (Homo sapiens, UniProt P28482)
[45] = molecular target: NT-3 growth factor receptor (Homo sapiens) (UniProt Q16288)
[46] = Compound concentration 1000.0 nM
[47] = Compound concentration 100.0 nM

Chain of Serine/threonine-protein kinase WNK1 (Homo sapiens) (Q9H4A3 whole entry, looked up): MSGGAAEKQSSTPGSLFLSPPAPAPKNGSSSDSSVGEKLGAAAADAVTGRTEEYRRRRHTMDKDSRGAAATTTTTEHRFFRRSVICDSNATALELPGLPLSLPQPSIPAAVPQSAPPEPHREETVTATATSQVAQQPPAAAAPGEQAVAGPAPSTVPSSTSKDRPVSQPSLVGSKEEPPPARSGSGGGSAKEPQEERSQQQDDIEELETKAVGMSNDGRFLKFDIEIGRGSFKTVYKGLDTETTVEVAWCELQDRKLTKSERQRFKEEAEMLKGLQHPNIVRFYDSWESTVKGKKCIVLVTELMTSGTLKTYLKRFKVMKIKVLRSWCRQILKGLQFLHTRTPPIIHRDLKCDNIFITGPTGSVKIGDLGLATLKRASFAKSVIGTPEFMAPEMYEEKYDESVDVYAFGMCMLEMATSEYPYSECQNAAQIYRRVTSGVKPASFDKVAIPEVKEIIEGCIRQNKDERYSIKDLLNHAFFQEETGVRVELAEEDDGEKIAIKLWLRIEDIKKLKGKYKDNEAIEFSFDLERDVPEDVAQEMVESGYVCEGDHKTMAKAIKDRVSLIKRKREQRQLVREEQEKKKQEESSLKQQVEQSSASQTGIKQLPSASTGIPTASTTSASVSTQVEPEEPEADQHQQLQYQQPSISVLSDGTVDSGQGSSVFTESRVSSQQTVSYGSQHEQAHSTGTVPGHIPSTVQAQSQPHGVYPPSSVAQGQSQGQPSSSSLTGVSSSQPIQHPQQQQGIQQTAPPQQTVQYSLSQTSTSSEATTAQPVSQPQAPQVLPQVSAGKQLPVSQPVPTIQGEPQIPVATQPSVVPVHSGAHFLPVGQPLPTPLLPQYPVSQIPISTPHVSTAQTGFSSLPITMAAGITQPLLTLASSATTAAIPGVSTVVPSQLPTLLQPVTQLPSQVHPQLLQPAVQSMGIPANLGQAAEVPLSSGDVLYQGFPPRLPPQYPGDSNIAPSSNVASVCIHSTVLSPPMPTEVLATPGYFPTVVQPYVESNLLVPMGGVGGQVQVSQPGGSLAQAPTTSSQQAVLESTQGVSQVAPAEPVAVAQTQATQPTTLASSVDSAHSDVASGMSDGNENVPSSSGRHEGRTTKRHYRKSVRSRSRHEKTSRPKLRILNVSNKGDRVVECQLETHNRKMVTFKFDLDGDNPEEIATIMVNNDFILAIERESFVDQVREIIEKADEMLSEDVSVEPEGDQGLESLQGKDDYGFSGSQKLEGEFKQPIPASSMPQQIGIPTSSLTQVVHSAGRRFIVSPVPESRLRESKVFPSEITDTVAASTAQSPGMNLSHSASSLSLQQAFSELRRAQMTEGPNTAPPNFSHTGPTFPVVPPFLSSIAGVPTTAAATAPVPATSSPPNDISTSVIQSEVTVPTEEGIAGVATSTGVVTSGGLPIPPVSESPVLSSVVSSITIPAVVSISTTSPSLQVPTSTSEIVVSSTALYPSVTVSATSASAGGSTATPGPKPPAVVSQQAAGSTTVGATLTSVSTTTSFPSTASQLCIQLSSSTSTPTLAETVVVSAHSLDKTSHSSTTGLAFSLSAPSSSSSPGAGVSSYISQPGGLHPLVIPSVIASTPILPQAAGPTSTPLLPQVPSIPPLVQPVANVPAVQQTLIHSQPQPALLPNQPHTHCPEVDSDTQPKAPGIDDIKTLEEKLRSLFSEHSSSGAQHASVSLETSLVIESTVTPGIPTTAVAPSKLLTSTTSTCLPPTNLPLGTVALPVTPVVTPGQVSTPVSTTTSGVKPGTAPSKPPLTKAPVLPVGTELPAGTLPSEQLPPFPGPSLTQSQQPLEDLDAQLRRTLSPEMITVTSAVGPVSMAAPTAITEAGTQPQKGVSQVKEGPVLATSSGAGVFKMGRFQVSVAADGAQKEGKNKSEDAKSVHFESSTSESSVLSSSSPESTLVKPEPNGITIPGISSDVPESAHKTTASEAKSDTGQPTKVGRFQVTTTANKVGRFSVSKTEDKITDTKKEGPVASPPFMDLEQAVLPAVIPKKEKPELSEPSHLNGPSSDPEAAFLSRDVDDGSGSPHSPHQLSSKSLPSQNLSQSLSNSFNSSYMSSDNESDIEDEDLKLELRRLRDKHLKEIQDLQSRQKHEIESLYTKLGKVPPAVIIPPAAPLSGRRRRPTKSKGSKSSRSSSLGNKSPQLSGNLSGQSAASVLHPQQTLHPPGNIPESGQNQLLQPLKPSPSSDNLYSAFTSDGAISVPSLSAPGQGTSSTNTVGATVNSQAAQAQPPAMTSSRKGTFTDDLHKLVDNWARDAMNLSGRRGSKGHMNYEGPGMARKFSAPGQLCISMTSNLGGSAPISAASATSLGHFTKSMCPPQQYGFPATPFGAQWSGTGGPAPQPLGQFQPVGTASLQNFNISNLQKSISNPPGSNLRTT
Chain of Activin receptor type-2A (Homo sapiens) (P27037 whole entry): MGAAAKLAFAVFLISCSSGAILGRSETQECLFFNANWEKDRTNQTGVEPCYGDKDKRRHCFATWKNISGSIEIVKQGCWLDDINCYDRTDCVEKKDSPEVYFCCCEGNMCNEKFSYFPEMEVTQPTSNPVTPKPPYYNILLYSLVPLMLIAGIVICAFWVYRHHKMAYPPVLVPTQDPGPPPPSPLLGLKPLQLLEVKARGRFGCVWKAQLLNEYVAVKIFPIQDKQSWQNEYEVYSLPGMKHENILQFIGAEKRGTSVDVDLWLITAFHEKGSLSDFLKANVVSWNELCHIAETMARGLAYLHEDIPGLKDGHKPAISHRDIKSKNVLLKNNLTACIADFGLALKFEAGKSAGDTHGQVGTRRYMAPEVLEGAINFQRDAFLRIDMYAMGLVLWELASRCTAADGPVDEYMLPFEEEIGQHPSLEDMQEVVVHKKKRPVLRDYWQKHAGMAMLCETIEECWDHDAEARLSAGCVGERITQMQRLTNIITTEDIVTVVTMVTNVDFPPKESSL
Chain of Serine/threonine-protein kinase SIK1 (Homo sapiens) (P57059 whole entry): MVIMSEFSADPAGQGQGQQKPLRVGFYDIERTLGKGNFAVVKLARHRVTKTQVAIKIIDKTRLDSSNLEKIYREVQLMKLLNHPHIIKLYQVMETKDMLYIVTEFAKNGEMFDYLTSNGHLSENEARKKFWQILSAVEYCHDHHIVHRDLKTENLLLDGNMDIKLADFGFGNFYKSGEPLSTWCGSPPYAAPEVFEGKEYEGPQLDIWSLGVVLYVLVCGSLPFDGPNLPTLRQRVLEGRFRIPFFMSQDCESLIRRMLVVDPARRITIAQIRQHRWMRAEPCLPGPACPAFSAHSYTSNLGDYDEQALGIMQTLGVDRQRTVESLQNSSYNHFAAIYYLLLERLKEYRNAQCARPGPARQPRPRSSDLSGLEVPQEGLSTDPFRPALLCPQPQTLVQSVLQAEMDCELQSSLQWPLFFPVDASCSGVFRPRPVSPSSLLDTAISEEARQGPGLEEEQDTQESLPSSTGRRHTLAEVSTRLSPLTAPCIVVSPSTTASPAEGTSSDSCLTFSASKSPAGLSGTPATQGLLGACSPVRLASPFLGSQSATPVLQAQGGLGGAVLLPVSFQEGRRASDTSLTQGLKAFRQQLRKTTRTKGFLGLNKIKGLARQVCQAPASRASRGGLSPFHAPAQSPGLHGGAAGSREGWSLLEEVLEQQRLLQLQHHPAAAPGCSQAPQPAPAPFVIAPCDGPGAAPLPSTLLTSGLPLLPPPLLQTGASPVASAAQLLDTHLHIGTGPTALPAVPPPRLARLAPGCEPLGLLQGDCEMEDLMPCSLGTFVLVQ
Chain of Receptor-interacting serine/threonine-protein kinase 4 (Homo sapiens) (P57078 whole entry): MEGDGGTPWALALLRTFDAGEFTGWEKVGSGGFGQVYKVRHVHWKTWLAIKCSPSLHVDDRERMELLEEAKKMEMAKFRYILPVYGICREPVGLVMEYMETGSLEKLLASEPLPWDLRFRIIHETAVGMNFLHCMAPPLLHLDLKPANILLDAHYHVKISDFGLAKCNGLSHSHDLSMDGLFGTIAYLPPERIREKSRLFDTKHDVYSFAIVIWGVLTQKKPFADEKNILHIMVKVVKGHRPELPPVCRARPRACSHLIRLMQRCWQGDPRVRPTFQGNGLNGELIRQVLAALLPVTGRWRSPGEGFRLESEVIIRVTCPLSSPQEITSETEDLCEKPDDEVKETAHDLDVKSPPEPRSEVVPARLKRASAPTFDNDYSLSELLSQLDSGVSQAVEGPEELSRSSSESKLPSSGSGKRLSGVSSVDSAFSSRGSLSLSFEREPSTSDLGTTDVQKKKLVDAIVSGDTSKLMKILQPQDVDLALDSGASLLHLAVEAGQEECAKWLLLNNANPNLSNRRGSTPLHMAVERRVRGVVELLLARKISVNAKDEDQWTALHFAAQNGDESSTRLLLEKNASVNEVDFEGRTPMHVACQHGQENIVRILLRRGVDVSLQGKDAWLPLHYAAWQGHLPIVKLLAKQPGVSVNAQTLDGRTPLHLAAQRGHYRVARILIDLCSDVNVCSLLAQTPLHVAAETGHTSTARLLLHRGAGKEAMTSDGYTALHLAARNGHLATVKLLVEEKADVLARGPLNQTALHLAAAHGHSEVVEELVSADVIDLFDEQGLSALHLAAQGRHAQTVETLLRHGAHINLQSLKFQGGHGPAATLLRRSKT
Chain of Bone morphogenetic protein receptor type-1A (Homo sapiens) (P36894 whole entry): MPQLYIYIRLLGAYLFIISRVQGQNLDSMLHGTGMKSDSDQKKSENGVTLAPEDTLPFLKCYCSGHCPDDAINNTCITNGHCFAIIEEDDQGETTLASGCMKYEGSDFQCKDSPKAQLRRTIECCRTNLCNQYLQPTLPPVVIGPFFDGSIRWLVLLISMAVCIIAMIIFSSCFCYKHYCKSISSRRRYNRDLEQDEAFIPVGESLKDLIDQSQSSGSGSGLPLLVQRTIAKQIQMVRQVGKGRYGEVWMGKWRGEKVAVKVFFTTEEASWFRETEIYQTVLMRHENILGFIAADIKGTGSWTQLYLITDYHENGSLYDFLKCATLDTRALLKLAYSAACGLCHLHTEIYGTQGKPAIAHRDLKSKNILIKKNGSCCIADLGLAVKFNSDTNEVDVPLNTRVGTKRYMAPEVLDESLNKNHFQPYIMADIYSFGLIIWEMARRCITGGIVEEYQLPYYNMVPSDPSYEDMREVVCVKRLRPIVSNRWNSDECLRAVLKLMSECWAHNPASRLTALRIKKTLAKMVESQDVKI

C[C@H](NC(=O)Nc1cc2[nH]ncc2c(CO)n1)c1ccccn1 [ERKi-NC]
residual activity [1, 46]: 86.8%
residual activity [2, 46]: 53.8%
residual activity [3, 46]: 88.8%
residual activity [4, 46]: 100%
residual activity [5, 46]: 85.6%
residual activity [6, 46]: 96.4%
residual activity [7, 46]: 100%
inhibition [8]: 18.7%
residual activity [9, 46]: 100%
residual activity [10, 46]: 95.4%
residual activity [11, 46]: 90.7%
residual activity [12, 46]: 100%
residual activity [13, 46]: 100%
residual activity [14, 46]: 74.6%
residual activity [15, 46]: 100%
residual activity [16, 46]: 92.1%
inhibition [17]: -0.787%
residual activity [18, 46]: 100%
residual activity [19, 46]: 78.8%
residual activity [20, 46]: 100%
residual activity [21, 46]: 96.3%
residual activity [22, 46]: 90.3%
residual activity [23, 46]: 100%
residual activity [24, 46]: 60.8%
residual activity [25, 46]: 100%
residual activity [26, 46]: 87.9%
residual activity [27, 46]: 34.6%
residual activity [28, 46]: 100%
residual activity [29, 46]: 100%
residual activity [30, 46]: 100%
residual activity [31, 46]: 100%
inhibition [32]: 1.42%
inhibition [33]: 25.4%
residual activity [34, 46]: 100%
residual activity [35, 46]: 100%
residual activity [36, 46]: 95.4%
residual activity [37, 46]: 100%
residual activity [38, 46]: 100%
residual activity [39, 46]: 100%
residual activity [40, 46]: 100%
residual activity [41, 46]: 100%
residual activity [42, 46]: 100%
residual activity [43, 46]: 100%
residual activity [44, 46]: 50%
residual activity [45, 46]: 85.4%

C[C@@H](NC(=O)Nc1cc2[nH]ncc2c(CO)n1)c1ccccc1 [ERKi]
residual activity [1, 47]: 71.2%
residual activity [2, 47]: 100%
residual activity [3, 47]: 82.7%
residual activity [4, 47]: 100%
residual activity [5, 47]: 74.7%
residual activity [6, 47]: 100%
residual activity [7, 47]: 79.5%
inhibition [8]: -0.569%
residual activity [9, 47]: 100%
residual activity [10, 47]: 90.1%
residual activity [11, 47]: 100%
residual activity [12, 47]: 100%
residual activity [13, 47]: 75.5%
residual activity [14, 47]: 100%
residual activity [15, 47]: 100%
residual activity [16, 47]: 58.4%
inhibition [17]: 2.86%
residual activity [18, 47]: 100%
residual activity [19, 47]: 66.6%
residual activity [20, 47]: 78.3%
residual activity [21, 47]: 89.6%
residual activity [22, 47]: 89.9%
residual activity [23, 47]: 80.2%
residual activity [24, 47]: 100%
residual activity [25, 47]: 76%
residual activity [26, 47]: 85.5%
residual activity [27, 47]: 75.7%
residual activity [28, 47]: 100%
residual activity [29, 47]: 92.6%
residual activity [30, 47]: 100%
residual activity [31, 47]: 100%
inhibition [32]: -2.72%
inhibition [33]: -9.99%
residual activity [34, 47]: 76.7%
residual activity [35, 47]: 88.7%
residual activity [36, 47]: 100%
residual activity [37, 47]: 90.8%
residual activity [38, 47]: 100%
residual activity [39, 47]: 95.2%
residual activity [40, 47]: 82.6%
residual activity [41, 47]: 76%
residual activity [42, 47]: 88.3%
residual activity [43, 47]: 100%
residual activity [44, 47]: 1%
residual activity [45, 47]: 76.7%
